Data as given in ChEMBL document CHEMBL3132769, “Fragment growing to retain or alter the selectivity of anchored kinase hinge-binding fragments” (Medchemcomm, 2014).

Tests used:
[1] = molecular target: Serine/threonine-protein kinase MARK2 (Homo sapiens) (UniProt Q7KZI7); experiment: Inhibition of human full length MARK2 expressed in baculovirus assessed as substrate phosphorylation using fluorescence-labelled peptides as substrate at 420 uM after 90 mins by microfluidic peptide phosphorylation assay
[2] = molecular target: T1, cGMP-dependent protein kinase 1 (Homo sapiens) (UniProt Q13976); experiment: Inhibition of human full length PKG-1a expressed in baculovirus assessed as substrate phosphorylation using fluorescence-labelled peptides as substrate at […] after 90 mins by microfluidic peptide phosphorylation assay
T1 sequence (whole entry): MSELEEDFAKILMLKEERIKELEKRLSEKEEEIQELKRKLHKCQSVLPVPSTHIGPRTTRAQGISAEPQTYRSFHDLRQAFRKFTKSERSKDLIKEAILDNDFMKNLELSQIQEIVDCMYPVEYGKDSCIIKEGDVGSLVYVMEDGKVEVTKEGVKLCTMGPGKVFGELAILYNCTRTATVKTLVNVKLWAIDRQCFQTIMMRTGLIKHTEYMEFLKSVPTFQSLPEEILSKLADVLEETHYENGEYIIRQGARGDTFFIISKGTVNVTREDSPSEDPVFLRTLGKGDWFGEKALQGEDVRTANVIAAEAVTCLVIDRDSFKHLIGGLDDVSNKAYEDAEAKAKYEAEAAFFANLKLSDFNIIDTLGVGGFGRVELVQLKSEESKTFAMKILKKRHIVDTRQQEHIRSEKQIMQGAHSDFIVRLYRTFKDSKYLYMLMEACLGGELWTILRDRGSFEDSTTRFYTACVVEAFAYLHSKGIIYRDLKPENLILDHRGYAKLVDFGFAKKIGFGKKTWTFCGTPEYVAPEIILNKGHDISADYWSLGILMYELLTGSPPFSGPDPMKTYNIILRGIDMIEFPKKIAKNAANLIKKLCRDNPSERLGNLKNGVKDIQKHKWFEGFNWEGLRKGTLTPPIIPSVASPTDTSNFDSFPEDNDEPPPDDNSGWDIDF

[3] = molecular target: T2, Serine/threonine-protein kinase 3 (Homo sapiens) (UniProt Q13188); experiment: Inhibition of human full length MST2 expressed in baculovirus assessed as substrate phosphorylation using fluorescence-labelled peptides as substrate at […] after 90 mins by microfluidic peptide phosphorylation assay
T2 sequence (whole entry): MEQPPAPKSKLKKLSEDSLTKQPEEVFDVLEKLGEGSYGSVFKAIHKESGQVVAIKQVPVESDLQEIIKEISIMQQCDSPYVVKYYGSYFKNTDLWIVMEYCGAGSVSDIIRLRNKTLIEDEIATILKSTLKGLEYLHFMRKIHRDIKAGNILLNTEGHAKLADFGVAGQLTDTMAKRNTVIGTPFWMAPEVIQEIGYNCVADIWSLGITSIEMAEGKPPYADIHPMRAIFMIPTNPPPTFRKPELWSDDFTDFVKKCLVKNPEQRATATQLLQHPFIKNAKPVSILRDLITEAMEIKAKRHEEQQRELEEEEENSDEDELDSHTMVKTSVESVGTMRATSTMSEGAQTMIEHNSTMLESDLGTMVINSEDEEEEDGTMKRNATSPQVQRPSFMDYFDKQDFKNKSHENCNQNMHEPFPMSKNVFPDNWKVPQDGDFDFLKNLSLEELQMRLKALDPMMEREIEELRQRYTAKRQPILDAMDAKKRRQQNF

[4] = species on record: Homo sapiens; experiment: Inhibition of human P70S6K catalytic domain expressed in baculovirus assessed as substrate phosphorylation using fluorescence-labelled peptides as substrate at 70 uM after 90 mins by microfluidic peptide phosphorylation assay
[5] = molecular target: T3, Testis-specific serine/threonine-protein kinase 1 (Homo sapiens) (UniProt Q9BXA7); experiment: Inhibition of human full length TSSK1 expressed in baculovirus assessed as substrate phosphorylation using fluorescence-labelled peptides as substrate at 8 uM after 90 mins by microfluidic peptide phosphorylation assay
T3 sequence (whole entry): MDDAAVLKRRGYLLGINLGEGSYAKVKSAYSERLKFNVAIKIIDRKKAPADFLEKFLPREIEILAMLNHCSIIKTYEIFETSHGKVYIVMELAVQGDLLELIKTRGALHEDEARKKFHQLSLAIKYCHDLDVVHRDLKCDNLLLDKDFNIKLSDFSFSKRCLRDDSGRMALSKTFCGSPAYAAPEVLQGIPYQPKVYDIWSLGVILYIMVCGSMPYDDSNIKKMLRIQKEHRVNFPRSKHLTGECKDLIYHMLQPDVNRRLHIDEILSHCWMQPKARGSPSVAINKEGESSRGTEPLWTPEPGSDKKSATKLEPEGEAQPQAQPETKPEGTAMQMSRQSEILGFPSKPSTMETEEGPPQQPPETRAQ

[6] = molecular target: Mitogen-activated protein kinase 1 (Homo sapiens) (UniProt P28482); experiment: Inhibition of human full length ERK2 expressed in Escherichia coli cell assessed as substrate phosphorylation using fluorescence-labelled peptides as substrate at 8 uM after 90 mins by microfluidic peptide phosphorylation assay
[7] = molecular target: T4, Serine/threonine-protein kinase Sgk2 (Homo sapiens) (UniProt Q9HBY8); experiment: Inhibition of human full length SGK2 expressed in baculovirus assessed as substrate phosphorylation using fluorescence-labelled peptides as substrate at 8 uM after 90 mins by microfluidic peptide phosphorylation assay
T4 sequence (whole entry): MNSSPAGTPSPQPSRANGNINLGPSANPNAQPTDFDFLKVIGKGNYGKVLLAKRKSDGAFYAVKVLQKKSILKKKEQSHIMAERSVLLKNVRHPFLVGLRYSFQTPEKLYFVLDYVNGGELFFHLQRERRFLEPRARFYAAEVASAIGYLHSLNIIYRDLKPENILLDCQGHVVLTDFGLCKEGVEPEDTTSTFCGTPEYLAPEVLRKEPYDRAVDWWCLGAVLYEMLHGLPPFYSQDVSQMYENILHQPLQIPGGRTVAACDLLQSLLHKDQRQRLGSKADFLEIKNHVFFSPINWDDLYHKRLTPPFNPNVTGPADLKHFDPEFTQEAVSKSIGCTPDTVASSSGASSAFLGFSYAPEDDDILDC

[8] = molecular target: T5, Serine/threonine-protein kinase Sgk1 (Homo sapiens) (UniProt O00141); experiment: Inhibition of human truncated SGK1 expressed in baculovirus assessed as substrate phosphorylation using fluorescence-labelled peptides as substrate at 2 uM after 90 mins by microfluidic peptide phosphorylation assay
T5 sequence (whole entry): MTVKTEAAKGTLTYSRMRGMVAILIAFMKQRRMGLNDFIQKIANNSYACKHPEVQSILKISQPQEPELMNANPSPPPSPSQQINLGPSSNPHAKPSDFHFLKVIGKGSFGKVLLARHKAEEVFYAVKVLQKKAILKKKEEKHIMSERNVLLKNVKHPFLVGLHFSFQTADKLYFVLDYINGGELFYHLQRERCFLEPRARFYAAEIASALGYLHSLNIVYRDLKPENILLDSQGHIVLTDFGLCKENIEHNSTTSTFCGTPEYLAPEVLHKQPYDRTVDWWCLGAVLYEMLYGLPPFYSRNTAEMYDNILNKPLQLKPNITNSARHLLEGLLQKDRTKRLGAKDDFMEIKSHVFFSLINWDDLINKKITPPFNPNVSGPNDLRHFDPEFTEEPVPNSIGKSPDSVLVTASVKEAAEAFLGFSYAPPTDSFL

Mitogen-activated protein kinase 1 (Homo sapiens), sequence (P28482 whole entry): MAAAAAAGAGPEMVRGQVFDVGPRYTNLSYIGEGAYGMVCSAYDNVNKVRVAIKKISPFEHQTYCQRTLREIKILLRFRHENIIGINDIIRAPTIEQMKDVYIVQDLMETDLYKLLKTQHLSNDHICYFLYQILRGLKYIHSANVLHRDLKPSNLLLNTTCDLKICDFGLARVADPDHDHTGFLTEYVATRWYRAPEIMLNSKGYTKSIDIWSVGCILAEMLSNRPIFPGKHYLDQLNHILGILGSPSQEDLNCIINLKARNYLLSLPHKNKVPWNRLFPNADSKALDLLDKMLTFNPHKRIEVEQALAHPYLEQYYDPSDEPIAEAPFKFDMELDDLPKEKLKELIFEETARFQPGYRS
Serine/threonine-protein kinase MARK2 (Homo sapiens), sequence (Q7KZI7 whole entry): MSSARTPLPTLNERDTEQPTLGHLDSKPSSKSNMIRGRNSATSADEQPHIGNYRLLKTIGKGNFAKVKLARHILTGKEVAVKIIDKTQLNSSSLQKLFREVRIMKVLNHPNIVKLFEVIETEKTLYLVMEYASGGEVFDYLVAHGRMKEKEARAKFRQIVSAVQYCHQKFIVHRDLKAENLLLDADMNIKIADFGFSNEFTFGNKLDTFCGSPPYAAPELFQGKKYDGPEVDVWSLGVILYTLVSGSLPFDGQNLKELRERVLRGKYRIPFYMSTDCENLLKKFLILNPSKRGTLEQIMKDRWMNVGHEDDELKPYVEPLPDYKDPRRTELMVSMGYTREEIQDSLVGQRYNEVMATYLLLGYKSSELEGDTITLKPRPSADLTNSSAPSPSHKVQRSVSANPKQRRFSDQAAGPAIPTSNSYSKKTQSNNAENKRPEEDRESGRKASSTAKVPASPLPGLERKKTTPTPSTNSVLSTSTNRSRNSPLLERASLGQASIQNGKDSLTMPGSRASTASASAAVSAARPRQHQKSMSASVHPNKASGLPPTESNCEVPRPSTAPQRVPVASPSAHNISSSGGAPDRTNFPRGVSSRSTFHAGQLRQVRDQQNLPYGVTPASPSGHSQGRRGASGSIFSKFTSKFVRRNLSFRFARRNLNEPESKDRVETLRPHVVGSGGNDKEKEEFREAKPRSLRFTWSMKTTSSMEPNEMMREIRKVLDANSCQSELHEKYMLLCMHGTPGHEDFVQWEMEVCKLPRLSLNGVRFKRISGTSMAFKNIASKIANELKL

Compound: c1nc(N2CCOCC2)c2nc[nH]c2n1
- inhibition [1]: 88%

Compound: COC(=O)c1cnc(Nc2cnc(C#N)cn2)cc1NCC1CCNCC1
- inhibition [2]: 4.5%
- inhibition [3]: 0.5%

Compound: CNCc1ccc(-c2ncnc3[nH]cnc23)cc1
- inhibition [4]: 29.5%

Compound: NCC1CCN(c2ncnc3[nH]ccc23)CC1
- inhibition [5]: 25.5%
- inhibition [6]: 7.5%
- inhibition [7]: 69%

Compound: NC1CCN(c2ncnc3[nH]ccc23)CC1
- inhibition [8]: 27%
